Where two headings read alike, the source gives them in different places.
How the values were obtained:
human AR [1] = biological target: T1, human AR (Homo sapiens, UniProt P10275); test: cell-based; assay type: cell-based; conditions: for EC50: read-out: AR Agonist CV-1 Cells Potency
T1 construct: expressed in transfected cells; host or cells: CV-1 cells (African green monkey kidney fibroblasts)
T1 sequence (P10275 1-920): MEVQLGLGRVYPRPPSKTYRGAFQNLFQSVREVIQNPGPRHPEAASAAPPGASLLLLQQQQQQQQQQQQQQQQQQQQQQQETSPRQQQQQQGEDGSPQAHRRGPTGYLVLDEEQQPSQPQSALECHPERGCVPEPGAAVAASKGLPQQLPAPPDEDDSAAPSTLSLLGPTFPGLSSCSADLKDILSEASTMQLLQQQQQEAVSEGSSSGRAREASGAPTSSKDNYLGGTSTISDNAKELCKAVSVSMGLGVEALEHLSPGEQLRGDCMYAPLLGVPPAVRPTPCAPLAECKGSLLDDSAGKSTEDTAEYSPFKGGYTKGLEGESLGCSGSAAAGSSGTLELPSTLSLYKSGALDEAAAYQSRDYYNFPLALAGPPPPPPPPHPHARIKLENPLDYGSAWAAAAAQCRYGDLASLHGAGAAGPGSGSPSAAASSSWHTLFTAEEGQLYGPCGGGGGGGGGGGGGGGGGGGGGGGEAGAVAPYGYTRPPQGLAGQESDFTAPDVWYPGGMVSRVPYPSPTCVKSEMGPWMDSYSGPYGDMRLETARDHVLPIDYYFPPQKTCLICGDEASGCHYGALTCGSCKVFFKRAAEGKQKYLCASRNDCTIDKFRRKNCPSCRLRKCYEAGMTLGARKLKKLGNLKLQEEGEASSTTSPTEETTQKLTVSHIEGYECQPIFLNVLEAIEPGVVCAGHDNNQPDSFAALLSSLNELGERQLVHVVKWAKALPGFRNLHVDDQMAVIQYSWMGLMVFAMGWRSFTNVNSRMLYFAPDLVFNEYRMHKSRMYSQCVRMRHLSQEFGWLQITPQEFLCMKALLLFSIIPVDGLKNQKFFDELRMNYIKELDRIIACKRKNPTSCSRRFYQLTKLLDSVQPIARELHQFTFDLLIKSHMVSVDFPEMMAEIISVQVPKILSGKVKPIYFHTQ
From the text: The co-transfection assay provides a method for identifying functional agonists and partial agonists which mimic, or antagonists which inhibit, the effect of native hormones, and quantifying their activity for responsive IR proteins. In this regard, the co-transfection assay mimics an in vivo system in the laboratory. Importantly, activity in the co-transfection assay correlates very well with known in vivo activity, such that the co-transfection assay functions as a qualitative and quantitative predictor of a tested compounds in vivo pharmacology. See, e.g., T. Berger et al. 41 J. Steroid Biochem. Molec.
CV-1 cells (African green monkey kidney fibroblasts) were cultured in the presence of Dulbecco's Modified Eagle Medium (DMEM) supplemented with 10% charcoal resin-stripped fetal bovine serum then transferred to 96-well microtiter plates one day prior to transfection.
The reporter plasmid, MTV-LUC, contains the cDNA for firefly luciferase (LUC) under control of the mouse mammary tumor virus (MTV) long terminal repeat, a conditional promoter containing an androgen response element. See e.g., Berger et al. supra. In addition, pRS-β-Gal, coding for constitutive expression of E. coli β-galactosidase (β-Gal), was included as an internal control for evaluation of transfection efficiency and compound toxicity.
Three to four replicates were used for each sample.
After 40 hours, the cells were washed with PBS, lysed with a Triton X-100-based buffer and assayed for LUC and β-Gal activities using a luminometer or spectrophotometer, respectively. For each replicate, the normalized response (NR) was calculated as:
where β-Gal rate=β-Gal•1×10^−5/β-Gal incubation time.

[2] = test system: immature castrated male rat; test: Immature castrated male rat model with testosterone silastic implant, ventral prostate and seminal vesicle weights; assay type: in vivo; conditions: for ED50: Rattus norvegicus, 72 h; for effect on ventral prostate and seminal vesicle weights (in words): Tables 5 and 6
From the text: The activity of selected compounds of the present invention as AR antagonists was *~ investigated in an immature castrated male rat model. A recognized test of the antiandrogen activity of a given compound, as described in L. G. Hershberger et al., 83 Proc. Soc. Exptl. […] Similar approaches have been used in the rat and in hamsters. […] Dermatol.
The basis of this assay is the fact that male sexual accessory organs, such as the prostate and seminal vesicles, play an important role in reproductive function. […] See F. Labrie et al., 16 Clin. Invest. […] However, this is not a major pathway since, in both animals and humans, castration without concomitant adrenalectomy leads to almost complete involution of the prostate and seminal vesicles. […] See M. C. […] Since the male sex organs are the tissues most responsive to modulation by androgen activity, this model is used to determine the androgen-dependent growth of the sex accessory organs in immature castrated rats.
Immature male rats (50-60 g, 21 day-old Sprague-Dawley, Harlan) were castrated under metofane anesthesia. […] As a negative control, a group of castrated animals received empty 10 mm silastic implants. Animal groups were dosed for 3 days by oral gavage as follows:
At the end of the 3-day treatment, the animals were sacrificed, and the ventral prostates and seminal vesicles were collected and weighed. Organ weight data were normalized to body weight of each animal and expressed as mg/100 g body weight. Results were analyzed by analysis of variance followed by the Dunnett's test. Data were transformed to comply with the normality and variance homogeneity criteria required to utilize the analysis of variance and Dunnett's test. The following data transformations were used for the ventral prostate and seminal vesicle: square root and power 0.7 respectively. Thereafter, the data were fitted to a four-parameter logistic equation and potencies derived from the fitted estimates. The same data transformations were used for the equation-fitting phase of the data analysis.
The gain and loss of sexual organ weights reflect the changes of cell number (DNA content) and cell mass (protein content), depending upon the serum androgen concentrations. […] Therefore, measurement of organ wet weights is sufficient to indicate the bioactivity of androgens and androgen antagonists.

human AR [3] = biological target: T1, human AR; test: cell-based; conditions: read-out: AR Binding Ki
[4] = oral, 3 days, four-parameter logistic fit, number of experiments in parentheses, read-out: Potency (ED50) Weighted Average ± SE, Seminal Vesicle Weight
[5] = oral, 3 days, four-parameter logistic fit, number of experiments in parentheses, read-out: Potency (ED50) Weighted Average ± SE, Ventral Prostate Weight
[6] = T implant + 0.1 mg/kg oral, 3 days
[7] = T implant + 1 mg/kg oral, 3 days
[8] = T implant + 3 mg/kg oral, 3 days
[9] = T implant + 10 mg/kg oral, 3 days
[10] = T implant + 30 mg/kg oral, 3 days
[11] = T implant + 100 mg/kg oral, 3 days
[12] = antagonist mode, DHT at its EC50, % of maximal inhibition, na = not active
[13] = read-out: AR Antagonist CV-1 Cells Potency

## CCC1CCN(C=O)c2cc3[nH]c(=O)cc(C(F)(F)F)c3cc21 (racemic) [Compound 121, (R/S)-4-Ethyl-1-formyl-1,2,3,4-tetrahydro-6-(trifluoromethyl)-8-pyridono[5,6-g]quinoline]
Human AR [1]
  AR Agonist CV-1 Cells Efficacy: 72 ± 20%
  EC50: 150 ± 39 nM

## CC(O)(CS(=O)(=O)c1ccc(F)cc1)C(=O)Nc1ccc(C#N)c(C(F)(F)F)c1 (stereo not shown) [Casodex]
[2]; po, read-out: Potency (ED50) Weighted Average ± SE, Seminal Vesicle Weight
  ED50: 7.8 ± 0.9 mg/kg
[2]; po, read-out: Potency (ED50) Weighted Average ± SE, Ventral Prostate Weight
  ED50: 7 ± 0.9 mg/kg
[2]
  effect on ventral prostate and seminal vesicle weights (in words): dose-dependent decrease

## CCC1CCN(C(C)=O)c2cc3[nH]c(=O)cc(C(F)(F)F)c3cc21 (racemic) [Compound 123, (R/S)-1-Acetyl-4-ethyl-1,2,3,4-tetrahydro-6-(trifluoromethyl)-8-pyridono[5,6-g]quinoline]
Human AR [1]
  AR Agonist CV-1 Cells Efficacy: 91 ± 17%
  EC50: 31 ± 2 nM
Human AR [3]
  Ki: 87 nM

## CC1(C)CCc2cc3c(C(F)(F)F)cc(=O)[nH]c3cc2N1 [LG120907, 1,2,3,4-Tetrahydro-2,2-dimethyl-6-trifluoromethyl-8-pyridono[5,6-g]quinoline]
[2]; [4]
  ED50: 19.2 ± 2.8 mg/kg
[2]; [5]
  ED50: 18.3 ± 4.8 mg/kg
[2]; [6]
  Seminal Vesicles weight: 32.9 ± 1.2 (5) mg/100 g body weight
  Ventral Prostate weight: 78.5 ± 2.0 (5) mg/100 g body weight
[2]; [7]
  Seminal Vesicles weight: 28.9 ± 1.4 (5) mg/100 g body weight
  Ventral Prostate weight: 57.3 ± 1.8 (5) mg/100 g body weight
[2]; [8]
  Seminal Vesicles weight: 31.7 ± 2.9 (5) mg/100 g body weight
  Ventral Prostate weight: 66.4 ± 5.6 (5) mg/100 g body weight
[2]; [9]
  Seminal Vesicles weight: 28.2 ± 1.8 (5) mg/100 g body weight
  Ventral Prostate weight: 59.9 ± 2.7 (5) mg/100 g body weight
[2]; [10]
  Seminal Vesicles weight: 16.5 ± 0.8 (5) mg/100 g body weight
  Ventral Prostate weight: 47.4 ± 2.9 (5) mg/100 g body weight
[2]; [11]
  Seminal Vesicles weight: 10.4 ± 1.0 (5) mg/100 g body weight
  Ventral Prostate weight: 20.2 ± 2.0 (5) mg/100 g body weight

## CC12CCCN1c1cc3[nH]c(=O)cc(C(F)(F)F)c3cc1CC2 (racemic) [Compound 101, (R/S)-6,7,7a,11-Tetrahydro-7a-methyl-4-trifluoromethyl-2-pyridono[5,6-g]pyrrolidino[1,2-a]quinoline]
Human AR [1]
  AR Antagonist CV-1 Cells Efficacy: 86 ± 6%
  IC50: 325 ± 68 nM

## CCC1CCNc2c1cc1c(C(F)(F)F)cc(=O)[nH]c1c2[N+](=O)[O-] (racemic) [Compound 124, (R/S)-4-Ethyl-1,2,3,4-tetrahydro-10-nitro-6-(trifluoromethyl)-8-pyridono[5,6-g]quinoline]
Human AR [1]; agonist mode, percent maximal response relative to reference agonist DHT, na = not active (efficacy < 10 and potency > 10,000)
  AR Agonist CV-1 Cells Efficacy: 50 ± 1%
Human AR [1]
  EC50: 202 ± 18 nM

## Cn1c(=O)cc(C(F)(F)F)c2cc3c4c(c21)CCCN4CCC3 [Compound 13, 8-Methyl-11-(trifluoromethyl)-9-pyridono[6,5-i]julolidine]
Human AR [1]; [12]
  AR Antagonist CV-1 Cells Efficacy: 84 ± 6%
Human AR [1]; [13]
  IC50: 726 ± 84 nM

## CC1(C)CCc2cc3c(C(F)(F)F)cc(=O)[nH]c3c([N+](=O)[O-])c2N1 [Compound 125, 1,2,3,4-Tetrahydro-2,2-dimethyl-10-nitro-6-(trifluoromethyl)-8-pyridono[5,6-g]quinoline]
Human AR [1]; [12]
  AR Antagonist CV-1 Cells Efficacy: 73%
Human AR [1]; [13]
  IC50: 1340 nM

## Cc1c2c(cc3c(C(F)(F)F)c(F)c(=O)n(C)c13)C(C)CC(C)(C)N2 (stereo not shown) [Compound 116, 7-Fluoro-1,2,3,4-tetrahydro-2,2,4,9,10-pentamethyl-6-trifluoromethyl-8-pyridono[5,6-g]quinoline]
Human AR [1]; [12]
  AR Antagonist CV-1 Cells Efficacy: 20%
Human AR [1]; [13]
  IC50: 1460 nM

## CC1(C)CCc2cc3c(C(F)(F)F)c([N+](=O)[O-])c(=O)[nH]c3c([N+](=O)[O-])c2N1 [Compound 126, 1,2,3,4-Tetrahydro-2,2-dimethyl-7,10-dinitro-6-(trifluoromethyl)-8-pyridono[5,6-g]quinoline]
Human AR [1]
  IC50: 5240 ± 363 nM
Human AR [1]; [12]
  AR Antagonist CV-1 Cells Efficacy: 44 ± 2 %

## Cc1c2c(cc3c(C(F)(F)F)c(F)c(=O)[nH]c13)C(C)CC(C)(C)N2C (stereo not shown) [Compound 117, 7-Fluoro-1,2,3,4-tetrahydro-1,2,2,4,10-pentamethyl-6-trifluoromethyl-8-pyridono[5,6-g]quinoline]
Human AR [1]; [12]
  AR Antagonist CV-1 Cells Efficacy: 82 ± 1%
Human AR [1]; [13]
  IC50: 394 ± 75 nM

## CC(C)C(=O)Nc1ccc([N+](=O)[O-])c(C(F)(F)F)c1 [Flutamide, 2-methyl-N-[4-nitro-3-(trifluoromethyl)phenyl]propanamide]
[2]; [4]
  ED50: 3.3 ± 0.4 mg/kg
[2]; [5]
  ED50: 4 ± 0.6 mg/kg
[2]; [6]
  Seminal Vesicles weight: 31.1 ± 0.9 (5) mg/100 g body weight
  Ventral Prostate weight: 78.9 ± 3.5 (5) mg/100 g body weight
[2]; [7]
  Seminal Vesicles weight: 27.9 ± 2.5 (5) mg/100 g body weight
  Ventral Prostate weight: 73.1 ± 4.6 (5) mg/100 g body weight
[2]; [8]
  Seminal Vesicles weight: 22.7 ± 0.9 (5) mg/100 g body weight
  Ventral Prostate weight: 62.4 ± 3.7 (5) mg/100 g body weight
[2]; [9]
  Seminal Vesicles weight: 12.4 ± 1.8 (5) mg/100 g body weight
  Ventral Prostate weight: 43.0 ± 3.6 (5) mg/100 g body weight
[2]; [10]
  Seminal Vesicles weight: 9.1 ± 1.3 (5) mg/100 g body weight
  Ventral Prostate weight: 28.4 ± 3.1 (5) mg/100 g body weight
[2]; [11]
  Seminal Vesicles weight: 9.9 ± 0.4 (5) mg/100 g body weight
  Ventral Prostate weight: 29.9 ± 1.8 (5) mg/100 g body weight
[2]
  effect on ventral prostate and seminal vesicle weights (in words): dose-dependent decrease

## O=c1cc(C(F)(F)F)c2cc3c4c(c2[nH]1)CCCN4CCC3 [Compound 12, 11-(Trifluoromethyl)-9-pyridono[6,5-i]julolidine]
Human AR [1]; [12]
  AR Antagonist CV-1 Cells Efficacy: 53 ± 16 %
Human AR [1]; [13]
  IC50: 2370 ± 215 nM

## CC1=CC(C)(C)Nc2c1cc1c(C(F)(F)F)c(F)c(=O)[nH]c1c2C [Compound 114, 7-Fluoro-1,2-dihydro-2,2,4, 10-tetramethyl-6-trifluoromethyl-8-pyridono[5,6-g]quinoline]
Human AR [1]; [12]
  AR Antagonist CV-1 Cells Efficacy: 90 ± 1%
Human AR [1]; [13]
  IC50: 203 ± 66 nM
